This passage reports EC50, apoenzyme activity restored and mode of inhibition results from publication PMC12856317, “A reversible feedback mechanism regulating mitochondrial heme synthesis” (The Journal of Biological Chemistry, 2025).

The EC50 is the concentration giving half of the maximal effect.

What all share (experiment): Inhibitor competition, apoenzyme reactivation by PLP with hemin
Assay type in all cases: biochemical

Assay [1] deals with T1, apoALAS2 Cys-mut (C70A/C555A/C558A) (Homo sapiens, UniProt P22557, C555A/C558A/C70A).
T1 construct: Site-directed mutagenesis was performed on the mature ALAS2 (residues 54–587) construct to generate truncations and cysteine mutants; His6-SUMO (N, cleaved yes); made in house; host or cells: Escherichia coli BL21-Codon Plus (DE3)-RIL
T1 sequence (P22557 54-587 C70A/C555A/C558A): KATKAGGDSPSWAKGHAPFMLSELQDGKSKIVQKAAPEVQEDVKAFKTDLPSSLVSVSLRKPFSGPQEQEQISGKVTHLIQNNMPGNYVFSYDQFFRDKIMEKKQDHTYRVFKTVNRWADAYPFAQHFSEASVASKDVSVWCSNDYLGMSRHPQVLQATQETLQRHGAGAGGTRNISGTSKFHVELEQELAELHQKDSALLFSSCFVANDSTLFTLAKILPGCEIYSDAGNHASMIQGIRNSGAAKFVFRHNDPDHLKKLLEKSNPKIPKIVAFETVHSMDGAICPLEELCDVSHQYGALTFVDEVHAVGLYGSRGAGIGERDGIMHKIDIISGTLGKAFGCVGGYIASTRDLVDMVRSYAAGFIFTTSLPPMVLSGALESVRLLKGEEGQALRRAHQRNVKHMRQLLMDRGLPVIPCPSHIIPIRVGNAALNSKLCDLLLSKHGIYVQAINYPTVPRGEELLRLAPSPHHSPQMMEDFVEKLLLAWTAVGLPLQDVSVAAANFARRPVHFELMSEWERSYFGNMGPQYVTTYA
The procedure: (§1) A discontinuous colorimetric activity assay adapted from Shoolingin-Jordan et al. and Bailey et al. was used to measure the enzyme activity ([48], [74]). The reaction was initiated by adding 100 nM purified enzyme to 50 mM potassium phosphate, pH 7.0, 10 mM MgCl2, 1 mM DTT, 100 mM glycine, and 300 μM succinyl-CoA (175 μl total). The reaction was incubated at 37 °C for 15 min and terminated with 100 μl of cold 10% trichloroacetic acid. The precipitated protein was removed by centrifugation for 5 min at 13,000g, and 240 μl of the supernatant was mixed with 240 μl of 1 M sodium acetate, pH 4.6. To derivatize ALA, 20 μl of acetylacetone was added to the mixture and boiled at 100 °C for 10 min. After the sample was cooled for 20 min, 100 μl aliquots were transferred into a clear 96-well plate in triplicate. An equal volume of Ehrlich’s reagent (p-Dimethylaminobenzaldehyde, DMAB) was added to each well, and the absorbance was monitored at 553 nm using a microplate reader (Thermo Fisher Scientific). The peak absorbance value was converted to molar ALA concentration using ε553 = 60,400 M^−1 cm^−1.
(§2) For inhibitor competition experiments, the apoenzymes were preincubated with hemin or PLP (0–100 μM) for 15 min at 25 °C in the dark before initiating the reaction. Next, either PLP or hemin (0–100 μM) was titrated into the reactions to measure enzyme activation after hemin inhibition or enzyme inhibition of the PLP-treated apoenzyme, respectively. For succinyl-CoA:hemin competition analyses, the WT holoenzyme was mixed with hemin (0, 25, 50, and 100 μM), followed by the addition of increasing succinyl-CoA concentrations (0, 25, 50, 100, 250, and 500 μM). All experiments were performed with a minimum of three biological replicates, each with three technical replicates. Data were fit using nonlinear regression to generate an agonist dose-response curve (EC50) or an inhibitor dose-response curve (IC50). Lineweaver-Burk analysis was performed using the resulting kinetic parameters (Vmax and KM) in GraphPad Prism 10.

Assay [2] addresses T2, apoALAS2 ΔN (residues 75–587) (Homo sapiens, UniProt P22557).
T2 construct: a truncation without HRM3 (ΔN, residues 75–587); His6-SUMO (N, cleaved yes); made in house; host or cells: Escherichia coli BL21-Codon Plus (DE3)-RIL
T2 sequence (P22557 75-587): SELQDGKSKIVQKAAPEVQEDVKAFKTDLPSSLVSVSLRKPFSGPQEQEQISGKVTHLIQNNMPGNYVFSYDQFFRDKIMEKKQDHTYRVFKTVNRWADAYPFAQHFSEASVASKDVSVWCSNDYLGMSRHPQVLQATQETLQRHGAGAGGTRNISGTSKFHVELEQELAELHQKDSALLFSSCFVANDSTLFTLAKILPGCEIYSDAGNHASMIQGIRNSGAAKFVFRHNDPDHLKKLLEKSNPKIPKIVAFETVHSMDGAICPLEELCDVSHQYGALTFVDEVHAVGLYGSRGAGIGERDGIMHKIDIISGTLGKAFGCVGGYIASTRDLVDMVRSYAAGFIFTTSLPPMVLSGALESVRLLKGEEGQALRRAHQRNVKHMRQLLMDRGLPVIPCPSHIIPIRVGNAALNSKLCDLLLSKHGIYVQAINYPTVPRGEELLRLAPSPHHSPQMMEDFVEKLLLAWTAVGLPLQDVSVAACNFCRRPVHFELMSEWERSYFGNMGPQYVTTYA
The procedure:
as §1, §2

Assay [3] concerns the target T3, apoALAS2 ΔC (residues 54–547) (Homo sapiens, UniProt P22557).
T3 construct: a truncation without the C-terminal CXXC motif (ΔC, residues 54–547); His6-SUMO (N, cleaved yes); made in house; host or cells: Escherichia coli BL21-Codon Plus (DE3)-RIL
T3 sequence (P22557 54-547): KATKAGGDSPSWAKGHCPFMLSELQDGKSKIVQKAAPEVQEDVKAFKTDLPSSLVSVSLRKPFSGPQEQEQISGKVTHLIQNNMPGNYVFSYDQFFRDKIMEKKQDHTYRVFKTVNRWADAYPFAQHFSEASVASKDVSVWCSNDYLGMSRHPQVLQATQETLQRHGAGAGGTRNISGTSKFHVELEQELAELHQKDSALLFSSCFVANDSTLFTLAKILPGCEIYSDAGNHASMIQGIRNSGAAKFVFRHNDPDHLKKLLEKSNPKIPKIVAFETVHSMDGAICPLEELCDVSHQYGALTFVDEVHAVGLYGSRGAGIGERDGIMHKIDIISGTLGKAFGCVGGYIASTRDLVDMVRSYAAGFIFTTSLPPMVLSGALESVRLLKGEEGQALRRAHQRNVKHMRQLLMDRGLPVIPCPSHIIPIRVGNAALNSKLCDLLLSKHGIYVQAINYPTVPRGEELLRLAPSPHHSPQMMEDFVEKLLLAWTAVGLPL
The procedure: as §1, §2

With `Cc1ncc(COP(=O)(O)O)c(C=O)c1O` [PLP], the EC50 was 10 ± 4 µM in assay [1] (Cys-mut apoALAS2, PLP titration in the presence of 50 μM hemin); 4 ± 2 µM in assay [2] (ΔN apoALAS2, PLP titration in the presence of 25 μM hemin); 9 ± 1 µM in assay [3] (ΔC apoALAS2, PLP titration in the presence of 50 μM hemin). This compound also registered an apoenzyme activity restored in assay [3] (ΔC apoenzyme preincubated with 50 μM heme, excess PLP) of about 50%.
With ferric chloride heme [hemin], the mode of inhibition result in assay [1] (Cys-mut, multiple heme concentrations (Fig. S4)) is recorded as “allosteric mixed inhibitor”; in assay [2] (ΔN, multiple heme concentrations (Fig. S4)), “allosteric mixed inhibitor”; in assay [3] (ΔC, multiple heme concentrations (Fig. S4)) it was “allosteric mixed inhibitor”.
